Test results reported in a compilation of properties of binary mixtures (doi:10.1021/je7001804).

Experiment: xn = mol fraction of the nth substance listed
Settings: 101 kPa

CC[n+]1ccn(C)c1.O=S(=O)([O-])C(F)(F)F + O
speed of sound [m/s]
Settings | 278.15 K | 288.15 K | 298.15 K | 308.15 K | 318.15 K | 328.15 K | 338.15 K
x1 = 0.0178 | 1510.5 | 1529 | 1541.8 | 1549.8 | – | 1553.1 | 1548.9
x2 = 0.0502 | 1482.9 | 1459.7 | 1437.1 | 1415 | 1393.3 | 1371.8 | –
x2 = 0.1058 | 1484.8 | 1461.7 | 1439.2 | – | 1395.5 | – | 1352.9
x2 = 0.1504 | 1486.6 | – | 1441 | 1418.9 | 1397 | – | 1354.2
x2 = 0.249 | – | 1468.2 | 1445.9 | 1424 | 1402.3 | 1380.8 | 1359.5
x2 = 0.3004 | 1494 | 1471.3 | 1449.1 | 1427.2 | – | – | –
x2 = 0.3524 | – | 1474.8 | 1452.7 | 1430.8 | 1409.2 | – | 1366.2
x2 = 0.3961 | – | 1478.3 | 1456.2 | 1434.4 | 1412.7 | 1391.2 | 1369.7
x2 = 0.4505 | 1505.3 | 1483 | – | 1439.3 | 1417.7 | 1396.2 | 1374.7
x2 = 0.5024 | 1510.7 | – | 1466.7 | – | 1423.4 | 1401.7 | 1380
x2 = 0.5502 | 1516.2 | 1494.3 | 1472.6 | 1451 | 1429.3 | – | –
x2 = 0.6 | – | 1501.1 | 1479.6 | 1458.1 | – | 1414.9 | 1393
x2 = 0.6502 | 1530.5 | 1509.2 | 1488 | 1466.7 | 1445.3 | 1423.6 | 1401.7
x2 = 0.702 | 1539.8 | 1519.2 | 1498.4 | – | 1456.1 | 1434.6 | 1412.9
x2 = 0.7493 | 1549 | 1529.2 | 1509.1 | – | 1467.8 | 1446.5 | 1424.7
x2 = 0.7998 | – | – | 1522.5 | 1503.1 | 1483 | 1462.2 | 1440.7
x2 = 0.8499 | 1569.5 | 1554.1 | 1537.6 | 1520.1 | 1501.5 | 1482 | –
x2 = 0.8996 | – | 1564.9 | 1552.9 | 1539.1 | 1523.7 | 1506.7 | 1488.2
x2 = 0.9498 | – | 1563.7 | 1561.1 | 1555.7 | 1547.7 | 1537.1 | 1524.2

CC[n+]1ccn(C)c1.O=S(=O)([O-])C(F)(F)F + CO
speed of sound [m/s]
Settings | 278.15 K | 288.15 K | 298.15 K | 308.15 K | 318.15 K
x2 = 0.0511 | 1477.5 | 1454 | 1431.1 | 1408.8 | 1387
x2 = 0.1016 | 1472 | 1448.7 | – | 1403.7 | 1382
x2 = 0.1557 | 1466.4 | 1443 | – | 1398 | 1376.2
x2 = 0.2035 | – | – | 1414.4 | 1392 | 1370.1
x2 = 0.3006 | 1447.8 | – | 1401.5 | 1379.1 | 1357.3
x2 = 0.3988 | 1432.7 | – | 1386 | 1363.4 | 1341.2
x2 = 0.5074 | 1411.3 | – | – | 1341.7 | 1319.4
x2 = 0.5993 | 1388.7 | 1364.7 | 1341.2 | 1318.2 | 1295.5
x2 = 0.6995 | 1356.5 | 1332 | 1308 | – | 1261.2
x2 = 0.8001 | 1312.5 | 1287.1 | 1262.1 | – | 1213.5
x2 = 0.8498 | 1285 | 1258.6 | 1232.8 | 1207.4 | 1182.5
x2 = 0.8995 | 1253.3 | 1225.3 | 1198 | 1171.2 | 1144.8
x2 = 0.9495 | – | 1186 | – | – | 1099.2

CC[n+]1ccn(C)c1.O=S(=O)([O-])C(F)(F)F + CCCO
speed of sound [m/s]
Settings | 278.15 K | 288.15 K | 298.15 K | 308.15 K | 318.15 K | 328.15 K | 338.15 K
x2 = 0.049 | 1475.1 | 1451.2 | 1428.3 | 1405.9 | – | 1362.5 | 1341.4
x2 = 0.1095 | 1465.8 | 1441.9 | 1419 | – | 1374.5 | – | 1331.7
x2 = 0.1497 | 1459 | 1435.5 | 1412.7 | 1390.3 | 1368.2 | – | 1325.3
x2 = 0.2004 | 1450.3 | 1426.7 | – | – | 1359.3 | 1337.6 | 1316.5
x2 = 0.3 | 1432.3 | 1408.4 | 1385.2 | 1362.3 | 1340 | 1317.9 | 1296.2
x2 = 0.3993 | – | 1388 | 1364.3 | 1341.1 | 1318.4 | 1295.9 | 1273.9
x2 = 0.499 | 1389.2 | 1364.6 | 1340.5 | 1316.9 | 1293.6 | 1270.7 | 1248.1
x2 = 0.6007 | 1363.1 | 1337.9 | 1313.4 | 1289.2 | – | 1241.7 | 1218.3
x2 = 0.6998 | 1335.8 | – | 1284.3 | – | 1234.2 | 1209.5 | 1185
x2 = 0.7996 | 1308.3 | – | 1253.7 | 1227 | 1200.5 | 1174.3 | 1148.2
x2 = 0.8496 | 1296 | 1267.3 | 1239.2 | 1211.4 | 1183.8 | 1156.5 | 1129.3
x2 = 0.8999 | 1286.3 | 1255.9 | 1226.3 | 1197.1 | 1168.1 | 1139.2 | –
x2 = 0.9499 | 1279.8 | 1247.3 | 1215.6 | – | – | – | 1092

CC[n+]1ccn(C)c1.O=S(=O)([O-])C(F)(F)F + CCO
speed of sound [m/s]
Settings | 278.15 K | 288.15 K | 298.15 K | 308.15 K | 318.15 K | 328.15 K
x2 = 0.0508 | 1475.9 | 1452.2 | 1429.4 | 1407 | 1385.2 | 1363.9
x2 = 0.0983 | – | – | 1422.7 | 1400.4 | – | 1357.6
x2 = 0.1483 | 1461.9 | 1438.3 | – | 1393.1 | 1371.1 | 1349.8
x2 = 0.198 | – | 1430.7 | – | – | – | –
x2 = 0.3072 | 1435.9 | – | 1389.3 | 1366.7 | 1344.6 | –
x2 = 0.4068 | 1416.2 | 1392.4 | 1369.2 | 1346.4 | 1323.9 | 1301.8
x2 = 0.4985 | 1394.8 | 1370.6 | 1346.9 | 1323.6 | – | –
x2 = 0.5999 | 1366.8 | – | 1318 | 1294.2 | – | 1247.7
x2 = 0.6991 | – | 1308.5 | 1283.7 | 1259.2 | 1235.1 | 1211.2
x2 = 0.8001 | – | – | 1241.7 | 1215.7 | 1189.9 | 1164.3
x2 = 0.8497 | 1273.5 | 1245.6 | 1218.2 | – | 1164.7 | 1138.4
x2 = 0.9 | 1252.7 | 1223.1 | – | – | 1137.5 | –
x2 = 0.9501 | 1233 | 1201.1 | 1170.1 | 1139.4 | 1109.1 | 1079.2
